These are literature values, as cited in patent publication US9182414B2, “Methods for identifying a GLP-1 secretagogue” (Arena Pharmaceuticals, Inc., priority 2005, dated 2015).

Square brackets hold non-standard residues; d marks the D form. Peptide text beside a SMILES is read from it. * marks the point of attachment. NHPhenethyl = c1ccc(CCN*)cc1; Nphe = O=C(O)CNCc1ccccc1; PhAc = O=C(Cc1ccccc1)*; βAla = NCCC(=O)O

This data set concerns the target T1, BRS-3 (Homo sapiens, UniProt P32247).
T1 sequence (P32247 1-399): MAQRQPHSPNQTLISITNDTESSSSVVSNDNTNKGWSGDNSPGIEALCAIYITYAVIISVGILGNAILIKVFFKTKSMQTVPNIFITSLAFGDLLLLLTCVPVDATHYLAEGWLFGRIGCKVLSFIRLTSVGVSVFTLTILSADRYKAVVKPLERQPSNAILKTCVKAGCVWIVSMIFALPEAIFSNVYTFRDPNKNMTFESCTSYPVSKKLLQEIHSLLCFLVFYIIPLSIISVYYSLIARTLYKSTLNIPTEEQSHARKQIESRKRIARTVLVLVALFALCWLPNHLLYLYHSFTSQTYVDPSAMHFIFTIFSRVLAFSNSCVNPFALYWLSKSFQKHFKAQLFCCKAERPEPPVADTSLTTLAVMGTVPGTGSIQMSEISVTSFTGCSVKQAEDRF
Conditions: BRS-3 over GRP-R and NMB-R; description taken from literature.
On to `NC(=O)CC[C@H](NC(=O)CCc1ccc(Cl)cc1)C(=O)N[C@H](Cc1c[nH]c2ccccc12)C(=O)NCCc1ccccc1` [Compound 1, N1-{(1R)-2-(1H-3-Indolyl)-1-[1-(2-phenylethyl)carbamoyl]ethyl}-(2S)-2-[1-(2-(4-chlorophenyl)ethyl)carboxamido]pentanediamide], for which the “selectivity as BRS-3 agonist” value is “selective BRS-3 agonists”. Consider `NC(=O)CC[C@H](NC(=O)Cc1cc2ccccc2[nH]1)C(=O)N[C@H](Cc1c[nH]c2ccccc12)C(=O)NCCc1ccccc1` [Compound 2, N1-{(1R)-2-(1H-3-Indolyl)-1-[1-(2-phenylethyl)carbamoyl]ethyl}-(2S)-2-[(1H-2-indolylmethyl)carboxamido]pentanediamide], for which the “selectivity as BRS-3 agonist” value is “selective BRS-3 agonists”. Turning to `C[C@H](NC(=O)Cc1ccccc1)C(=O)N[C@H](Cc1c[nH]c2ccccc12)C(=O)NCCc1ccccc1` [Compound 3, N1-(2-Phenylethyl)-(2R)-2-{[(1S)-1-(benzylcarboxamido)ethyl]carboxamido}-3-(1H-3-indolyl)propanamide] (PhAc-Ala-[dW]-NHPhenethyl), the “selectivity as BRS-3 agonist” value was “selective BRS-3 agonists”. For the molecule `C[C@H](NC(=O)Cc1ccc(Cl)cc1)C(=O)N[C@H](Cc1c[nH]c2ccccc12)C(=O)NCCc1ccccc1` [Compound 4, N1-(2-Phenylethyl)-(2R)-2-{[(1S)-1-((4-chlorobenzyl)-carboxamido)ethyl]carboxamido}-3-(1H-3-indolyl)propanamide], the “selectivity as BRS-3 agonist” value was “selective BRS-3 agonists”. For `C[C@H](NC(=O)Cc1ccc2c(c1)OCO2)C(=O)N[C@H](Cc1c[nH]c2ccccc12)C(=O)NCCc1ccccc1` [Compound 5, N1-(2-Phenylethyl)-(2R)-2-{[(1S)-1-((1,3-benzodioxol-5-ylmethyl)carboxamido)ethyl]carboxamido}-3-(1H-3-indolyl)propanamide], the “selectivity as BRS-3 agonist” value is “selective BRS-3 agonists”.

Take `C[C@H](NC(=O)Cc1cccnc1)C(=O)N[C@H](Cc1c[nH]c2ccccc12)C(=O)NCCc1ccccc1` [Compound 6, N1-(2-Phenylethyl)-(2R)-2-{[(1S)-1-((3-pyridyl)methylcarboxamido)ethyl]carboxamido}-3-(1H-3-indolyl)propanamide]: the “selectivity as BRS-3 agonist” value is on record as “selective BRS-3 agonists”. On to `C[C@H](NC(=O)CC1NCCc2ccccc21)C(=O)N[C@H](Cc1c[nH]c2ccccc12)C(=O)NCCc1ccccc1` (stereo partly drawn) [Compound 7, N1-(2-Phenylethyl)-(2R)-2-{[(1S)-1-((1,2,3,4-tetrahydro-1-isoquinolinyl)methylcarboxamido)ethyl]carboxamido}-3-(1H-3-indolyl)propanamide], for which the “selectivity as BRS-3 agonist” value is given as “selective BRS-3 agonists”.

In the case of `C[C@H](NC(=O)Cc1cc2ccccc2[nH]1)C(=O)N[C@H](Cc1c[nH]c2ccccc12)C(=O)NCCc1ccccc1` [Compound 8, N1-(2-Phenylethyl)-(2R)-2-{[(1S)-1-((1H2-indolyl)methylcarboxamido)ethyl]carboxamido}-3-(1H-3-indolyl)propanamide], the “selectivity as BRS-3 agonist” value is given as “selective BRS-3 agonists”. As for `O=C(CNCc1ccccc1)N[C@H](Cc1c[nH]c2ccccc12)C(=O)NCCc1ccccc1` [Compound 9, N1-(2-Phenylethyl)-(2R)-2-{[(benzyl)amino]methylcarboxamido}-3-(1H-3-indolyl)propanamide] (H-[Nphe]-[dW]-NHPhenethyl), the “selectivity as BRS-3 agonist” value is given as “selective BRS-3 agonists”. Turning to `O=C(CNCc1ccc(Cl)cc1)N[C@H](Cc1c[nH]c2ccccc12)C(=O)NCCc1ccccc1` [Compound 10, N1-(2-Phenylethyl)-(2R)-2-{[(4-chlorobenzyl)amino]-methylcarboxamido}-3-(1H-3-indolyl)propanamide], the “selectivity as BRS-3 agonist” value was “selective BRS-3 agonists”. On to `O=C(CNCc1cccnc1)N[C@H](Cc1c[nH]c2ccccc12)C(=O)NCCc1ccccc1` [Compound 11, N1-(2-Phenylethyl)-(2R)-2-{[(3-pyridyl)methylamino]-methylcarboxamido}-3-(1H-3-indolyl)propanamide], for which the “selectivity as BRS-3 agonist” value is “selective BRS-3 agonists”.

Turning to `O=C(CNCCc1ccccc1)N[C@H](Cc1c[nH]c2ccccc12)C(=O)NCCc1ccccc1` [Compound 12, N1-(2-Phenylethyl)-(2R)-2-{[1-(2-phenylethyl)amino]-methylcarboxamido}-3-(1H-3-indolyl)propanamide], the “selectivity as BRS-3 agonist” value is listed as “selective BRS-3 agonists”.

As for `CC(NCc1ccccc1)C(=O)N[C@H](Cc1c[nH]c2ccccc12)C(=O)NCCc1ccccc1` (stereo partly drawn) [Compound 13], the “selectivity as BRS-3 agonist” value is “selective BRS-3 agonists”.

Take `CC(NCc1ccc(Cl)cc1)C(=O)N[C@H](Cc1c[nH]c2ccccc12)C(=O)NCCc1ccccc1` (stereo partly drawn) [Compound 14, N1-(2-Phenylethyl)-(2R)-2-{[1-((4-chlorobenzyl)amino)ethyl]carboxamido}-3-(1H-3-indolyl)propanamide]: the “selectivity as BRS-3 agonist” value is listed as “selective BRS-3 agonists”. With `CC(NCCc1ccccc1)C(=O)N[C@H](Cc1c[nH]c2ccccc12)C(=O)NCCc1ccccc1` (stereo partly drawn) [Compound 15, N1-(2-Phenylethyl)-(2R)-2-{[1-(1-(2-phenylethyl)amino)ethyl]carboxamido}-3-(1H-3-indolyl)propanamide], the “selectivity as BRS-3 agonist” value is on record as “selective BRS-3 agonists”. In the case of `O=C(NNC(=O)c1ccccc1)N[C@H](Cc1c[nH]c2ccccc12)C(=O)NCCc1ccccc1` [Compound 16, N1-(2-Phenylethyl)-(2R)-2-{{N′-(benzoyl)hydrazino]carboxamido}-3-(1H-3-indolyl)propanamide], the “selectivity as BRS-3 agonist” value is on record as “selective BRS-3 agonists”. Regarding `O=C(NNC(=O)c1ccc(Cl)cc1)N[C@H](Cc1c[nH]c2ccccc12)C(=O)NCCc1ccccc1` [Compound 17, N1-(2-Phenylethyl)-(2R)-2-{{N′-(4-chlorobenzoyl)-hydrazino]carboxamido}-3-(1H-3-indolyl)propanamide], the “selectivity as BRS-3 agonist” value is reported as “selective BRS-3 agonists”. For `O=C(Cc1cccnc1)NNC(=O)N[C@H](Cc1c[nH]c2ccccc12)C(=O)NCCc1ccccc1` [Compound 18, N1-(2-Phenylethyl)-(2R)-2-{[N′-(2-(3-pyridyl)ethanoyl)hydrazino]carboxamido}-3-(1H-3-indolyl)propanamide], the “selectivity as BRS-3 agonist” value is reported as “selective BRS-3 agonists”. Consider `O=C(CC1NCCc2ccccc21)NNC(=O)N[C@H](Cc1c[nH]c2ccccc12)C(=O)NCCc1ccccc1` (stereo partly drawn) [Compound 19, N1-(2-Phenylethyl)-(2R)-2-{{N′-(2-(1,2,3,4-tetrahydro-1-isoquinolinyl)ethanoyl)hydrazino]carboxamido}-3-(1H-3-indolyl)propanamide], for which the “selectivity as BRS-3 agonist” value is on record as “selective BRS-3 agonists”. On to `O=C(Cc1cc2ccccc2[nH]1)NNC(=O)N[C@H](Cc1c[nH]c2ccccc12)C(=O)NCCc1ccccc1` [Compound 20, N1-(2-Phenylethyl)-(2R)-2-{[N′-(2-(1H-2-indolyl)ethanoyl)hydrazino]carboxamido}-3-(1H-3-indolyl)propanamide], for which the “selectivity as BRS-3 agonist” value is given as “selective BRS-3 agonists”.

On to `O=C(NN=Cc1ccccc1)N[C@H](Cc1c[nH]c2ccccc12)C(=O)NCCc1ccccc1` [Compound 21, N1-(2-Phenylethyl)-(2R)-2-{[N′-(phenylmethylene)-hydrazino]carboxamido}-3-(1H-3-indolyl)propanamide], for which the “selectivity as BRS-3 agonist” value is “selective BRS-3 agonists”. As to `O=C(NN=Cc1ccco1)N[C@H](Cc1c[nH]c2ccccc12)C(=O)NCCc1ccccc1` [Compound 22, N1-(2-Phenylethyl)-(2R)-2-{[N′-(furan-2-ylmethylene)hydrazino]carboxamido}-3-(1H-3-indolyl)propanamide], the “selectivity as BRS-3 agonist” value is “selective BRS-3 agonists”. On to `O=C(NNCc1ccccc1)N[C@H](Cc1c[nH]c2ccccc12)C(=O)NCCc1ccccc1` [Compound 23, N1-(2-Phenylethyl)-(2R)-2-{[N′-(benzyl)hydrazino]carboxamido}-3-(1H-3-indolyl)propanamide], for which the “selectivity as BRS-3 agonist” value is listed as “selective BRS-3 agonists”. For the molecule `O=C(NNCc1ccc(Cl)cc1)N[C@H](Cc1c[nH]c2ccccc12)C(=O)NCCc1ccccc1` [Compound 24, N1-(2-Phenylethyl)-(2R)-2-{[N′-(4-chlorobenzyl)hydrazino]carboxamido}-3-(1H-3-indolyl)propanamide], the “selectivity as BRS-3 agonist” value is on record as “selective BRS-3 agonists”.

As to `O=C(NNCc1ccco1)N[C@H](Cc1c[nH]c2ccccc12)C(=O)NCCc1ccccc1` [Compound 25, N1-(2-Phenylethyl)-(2R)-2-{[N′-(2-furylmethyl)hydrazino]carboxamido}-3-(1H-3-indolyl)propanamide], the “selectivity as BRS-3 agonist” value is “selective BRS-3 agonists”. Regarding `O=C(CN1CCN(Cc2ccccc2)CC1)N[C@H](Cc1c[nH]c2ccccc12)C(=O)NCCc1ccccc1` [Compound 26], the “selectivity as BRS-3 agonist” value is on record as “selective BRS-3 agonists”. `O=C(CN1CCC(Cc2ccccc2)CC1)N[C@H](Cc1c[nH]c2ccccc12)C(=O)NCCc1ccccc1` [Compound 27, N1-(2-Phenylethyl)-(2R)-2-{[(4-benzylpiperidino)methyl]carboxamido}-3-(1H-3-indolyl)propanamide]: the “selectivity as BRS-3 agonist” value is on record as “selective BRS-3 agonists”. Consider Ac-FWAV[βAla]HRW-NH2 [Compound 33], for which the “selectivity as BRS-3 agonist” value is reported as “selective BRS-3 agonists”. Take “Ac-Phe-Trp-Ala-His(τBzl)-Nip-Gly-Arg-NH2 [Compound 31]”: the “selectivity as BRS-3 agonist” value was “selective BRS-3 agonists”.

Consider “Ac-Phe-Trp-Ala-His(τBzl)-βAla-His-Arg-NH2 [Compound 32]”, for which the “selectivity as BRS-3 agonist” value was “selective BRS-3 agonists”.
